1 compound from patent US7550511B2, “Compositions that bind antiterminator RNA and assay for screening for such compositions” (Ahio University, priority 2001, dated 2009) can be followed below.

This assay has as its system 9-(2-aminopurine)-RNA II versus 9-(2-aminopurine)-RNA IV (T-box antiterminator model RNAs). The experiment in a line: Fluorescence assay, relative fluorescence ratio (RNA binding selectivity) at 1 mM ligand. The settings on record: (F-Fo) RNA II / (F-Fo) RNA IV; <1.0 preferential binding for RNA IV, >1.0 for RNA II.

Regarding `NC(Cc1ccccc1)C(O)CO` (stereo not shown) [Amino Alcohol 2, 3-amino-4-phenyl-butane-1,2-diol], the “relative fluorescence ratio (rounded)” value is 0.4.
